Assay results from US6689758B1, “Gene therapy method” (SmithKline Beecham Corporation, priority 1998, dated 2004).

Experiments:
[1] = tested on: human cell co-culture system; test: In vitro angiogenesis co-culture system (tubule formation, PECAM-1 staining); type: cell-based; conditions: 20 μM, negative control; 11 days co-culture
Description: Egr-1 under the control of the hCMV promoter (Houston et al, Arterioscler. Thromb. Vasc. Biol., 19; 281-289, 1999) was transfected into a human cell co-culture system designed to measure angiogenesis in vitro. The angiogenesis kit (TCS Biologicals) was used as described according to the manufacturer's instructions using VEGF protein (2 ng/ml) and suramin (20 μM) as positive and negative controls respectively for angiogenesis.
Optimisation of transfection in the co-culture system was performed using pGL3 control luciferase (Promega) with 1.0 μg and 0.5 μg CMV-β, gal as a normalising plasmid for transfection control. Two ratios of lipid: DNA (v/w) were used; 2:1 and 4:1 (FIG. 3a.). CMV Egr-1 DNA was transfected at 0.5, 1.0, 1.5 and 2.5 μg per well in triplicate in a 24 well microtitre plate using Mirus Transit reagent (Cambridge Biosciences) at a ratio of 2:1 v/w DNA. VEGF protein positive control and suramin negative control was added to triplicate wells. After 11 days co-culture angiogenesis was determined by staining of cells for the endothelial cell marker PECAM-1 and visualisation using BCIP/NBT substrate.
Representative images of tubule formation using all four doses of Egr-1 expression plasmid together with VEGF (positive control) and suramin (negative control) were captured and processed by image analysis using Quantimet 600 image analyser and associated software. […]

rat excisional wounds = test: Rat excisional wound healing model after particle mediated gene transfer; type: in vivo, Sprague Dawley rats
Description: Eighteen male Sprague Dawley rats weighing 250g were anaesthetised under isoflorane in a 2:1 mixture of oxygen/nitrous oxide. Two sites of transfection (8 cm from the skull, 1.5 cm either side of the spine) on the rat dorsum were prepared by firstly clipping the pelt then shaving with a razor. Two transfections were carried out per wound site, 8 mm apart, by accelerating plasmid/gold complexes of either Egr-1 or β-galactosidase into the skin at 350 psi. Total amount of DNA was not less than 1.7 μg per transfection (equalling 3.4 μg per wound). […]
Wound area was determined using image analysis and the healing expressed as a increase in percent of original wound area. Statistical significances of differences between treated and control groups were evaluated using a […] Mann-Whitney test.
Each wound per time point after dissection was bisected horizontally. […] Using this histological stain, key markers of wound healing was assessed including re-epithelialisation and collagen content and comparisons made between treated and control sections.
Immunocytochemistry and image analysis was performed in order to quantify the differences seen using routine histology. […] Area and intensity of staining was measured using image analysis and plotted as a graph. Statistical significant differences between treated and control groups were evaluated using a Man-Whitney nonparametric test.

HeLa cells = test: Transient transfection of reporter plasmid pSVSRE5 with pFA-MEK1 into HeLa cells; type: cell-based; conditions: co-transfected pFA-MEK1 vs pFA-dbd
Description: We have concentrated on SRE5. The novel SRE 5 with its associated Ets transcription factor binding sites was synthesised as a double stranded oligonucleotide and inserted into the Nhe I site upstream of a SV40 minimal promoter vector (pSV40). SRE5 (SEQ ID NOS:7-8) has the sequence: […]
The resulting reporter plasmid pSVSRE5 was transiently transfected into HeLa cells together with plasmids pFA-dbd (construct encoding the Gal4 DNA binding domain (dbd) ) or pFA-MEK1 (construct encoding a fusion protein of the Gal4 DNA binding domain (dbd) and the kinase domain of the MAP kinase kinase MEK1). The Gal4-MEK1 fusion protein is constitutively active and phosphorylates Elk1 and SRF, bound to SRE5.

Cc1ccc(C(=O)Nc2ccc(S(=O)(=O)O)c3cc(S(=O)(=O)O)cc(S(=O)(=O)O)c23)cc1NC(=O)c1cccc(NC(=O)Nc2cccc(C(=O)Nc3cc(C(=O)Nc4ccc(S(=O)(=O)O)c5cc(S(=O)(=O)O)cc(S(=O)(=O)O)c45)ccc3C)c2)c1 [suramin]
tubule formation [1]: Decreased tubule formation

β-galactosidase
collagen I immunostaining (image analysis) (rat excisional wounds; 2 days post wounding, β-galactosidase compared to Egr-1): significantly more collagen | wounds with complete re-epithelialisation (rat excisional wounds; 6 days post wounding): 0%

B1: SRE5: novel SRE 5 with associated Ets sites, double stranded oligonucleotide inserted upstream of SV40 minimal promoter (reporter plasmid pSVSRE5) (nucleic acid)
chain 1: AGGCTGCGACCCGGAAATGCCATATAAGAAGCAGGAAGGATCCCCCCGCCGG
chain 2: AGCCGGCGGGGGGATCCTTCCTGCTTCTTATATGGCATTTCCGGGTCGCAGC
modifications: double-stranded insert cloned upstream of SV40 minimal promoter in reporter plasmid, further chemistry not given here
activation by the presence of MEK1 (reporter) (HeLa cells): 3 fold
